For 5 molecules, IC50 and viability, T/C results are on record in PubChem BioAssay AID1918932 (Molecular Pharmacology Branch, DTP, NCI, 2023).

“And” between values parts separate entries of the source, which are not always exact repeats. Identical values can stand only once.

By IC50 is commonly meant the midpoint of a concentration-inhibition curve. The term viability, T/C denotes the ratio of treated to control.

The subject of the assay is 171881-019-R-J1-PDC complex spheroid viability. The assay is described as follows: Anticancer human tumor 171881-019-R-J1-PDC patient-derived invasive breast carcinoma cell line growth inhibition. The settings on record: for viability, T/C: stronger effect = lower value. Put shortly: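 Complex spheroids of tumor cells with HUVEC and human MSCs, exposed to iadademstat combined with other agents. Each agent tested in half-log steps from near clinical Cmax (else 10 microM top), DMSO ≤0.25%.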

Setting [1] is: curve of first compound, second compound 0.1 µM.
Where [2] appears, read: curve of first compound, second compound 0.316 µM.
Where [3] appears, read: curve of first compound, second compound 1 µM.
The mark [4] stands for this setting: curve of first compound, second compound 3.16 µM.
[5] abbreviates: curve of first compound, second compound 10 µM.
The mark [6] stands for this setting: second compound 0.1 µM, first compound 0.0316 µM.
Setting [7] is: second compound 0.1 µM, first compound 0.1 µM.
[8] abbreviates: second compound 0.316 µM, first compound 0.0316 µM.
The mark [9] stands for this setting: second compound 0.316 µM, first compound 0.1 µM.
The mark [10] stands for this setting: second compound 1 µM, first compound 0.0316 µM.
Where [11] appears, read: second compound 1 µM, first compound 0.1 µM.
The mark [12] stands for this setting: second compound 3.16 µM, first compound 0.0316 µM.
The mark [13] stands for this setting: second compound 3.16 µM, first compound 0.1 µM.
Where [14] appears, read: second compound 10 µM, first compound 0.0316 µM.
Setting [15] is: second compound 10 µM, first compound 0.1 µM.

Regarding `CC[C@@]1(O)C(=O)OCc2c1cc1n(c2=O)Cc2cc3c(CN(C)C)c(O)ccc3nc2-1` + NC1CC1c1ccc(-c2cccc(O)c2)cc1, the IC50 reads like this: under setting [1], 71.1 nM; under setting [2], 80.4 nM; under setting [3], 36.6 nM; under setting [4], 37.4 nM; under setting [5], 21 nM. The viability, T/C is, setting by setting: (second compound 0.1 µM, first compound 0.000316 µM) 103%; (second compound 0.1 µM, first compound 0.001 µM) 104%; (second compound 0.1 µM, first compound 0.00316 µM) 84.4%; (second compound 0.1 µM, first compound 0.01 µM) 68.9%; under setting [6], 64.3%; under setting [7], 44.2%. For the same molecule, the viability, T/C reads like this: (second compound 0.316 µM, first compound 0.000316 µM) 108%; (second compound 0.316 µM, first compound 0.001 µM) 107%; (second compound 0.316 µM, first compound 0.00316 µM) 87.8%; (second compound 0.316 µM, first compound 0.01 µM) 70.5%; under setting [8], 61.9%; under setting [9], 46.4%. Further, the viability, T/C is 103% (second compound 1 µM, first compound 0.000316 µM); 105% (second compound 1 µM, first compound 0.001 µM); 90.7% (second compound 1 µM, first compound 0.00316 µM); 70.3% (second compound 1 µM, first compound 0.01 µM); 53.2% under setting [10]; 39.6% under setting [11]. In addition, the viability, T/C runs as follows: (second compound 3.16 µM, first compound 0.000316 µM) 101%; (second compound 3.16 µM, first compound 0.001 µM) 96.7%; (second compound 3.16 µM, first compound 0.00316 µM) 90.5%; (second compound 3.16 µM, first compound 0.01 µM) 66.8%; under setting [12], 55.9%; under setting [13], 33.6%. The viability, T/C by setting is: (second compound 10 µM, first compound 0.000316 µM) 90.1%; (second compound 10 µM, first compound 0.001 µM) 85.3%; (second compound 10 µM, first compound 0.00316 µM) 78.9%; (second compound 10 µM, first compound 0.01 µM) 57.3%; under setting [14], 47%; under setting [15], 37.4%.

With `CC1(C)CCC(CN2CCN(c3ccc(C(=O)NS(=O)(=O)c4ccc(NCC5CCOCC5)c([N+](=O)[O-])c4)c(Oc4cnc5[nH]ccc5c4)c3)CC2)=C(c2ccc(Cl)cc2)C1` + NC1CC1c1ccc(-c2cccc(O)c2)cc1, the IC50 is, setting by setting: under setting [1], 1410 nM; under setting [2], 1490 nM; under setting [3], 1450 nM; under setting [4], 1450 nM; under setting [5], 1300 nM. Besides, the viability, T/C under setting [6] was 101%; the viability, T/C under setting [7] is 97.9%; the viability, T/C (second compound 0.1 µM, first compound 0.316 µM) was 87.8%; the viability, T/C (second compound 0.1 µM, first compound 1 µM) is 63%; the viability, T/C (second compound 0.1 µM, first compound 3.16 µM) is 21.7%; the viability, T/C (second compound 0.1 µM, first compound 10 µM) was 9.08%. For the same molecule, the viability, T/C runs as follows: under setting [8], 103%; under setting [9], 95.7%; (second compound 0.316 µM, first compound 0.316 µM) 92.3%; (second compound 0.316 µM, first compound 1 µM) 64.4%; (second compound 0.316 µM, first compound 3.16 µM) 22.9%; (second compound 0.316 µM, first compound 10 µM) 4.28%. Further, the viability, T/C under setting [10] was 103%; the viability, T/C under setting [11] was 102%; the viability, T/C (second compound 1 µM, first compound 0.316 µM) is 88.4%; the viability, T/C (second compound 1 µM, first compound 1 µM) was 64.2%; the viability, T/C (second compound 1 µM, first compound 3.16 µM) was 22.3%; the viability, T/C (second compound 1 µM, first compound 10 µM) is 4%. The viability, T/C was 94.5% under setting [12]; 92.7% under setting [13]; 86.3% (second compound 3.16 µM, first compound 0.316 µM); 63.2% (second compound 3.16 µM, first compound 1 µM); 22.8% (second compound 3.16 µM, first compound 3.16 µM); 4.22% (second compound 3.16 µM, first compound 10 µM). Also, the viability, T/C under setting [14] is 84.5%; the viability, T/C under setting [15] is 82.5%; the viability, T/C (second compound 10 µM, first compound 0.316 µM) was 77.1%; the viability, T/C (second compound 10 µM, first compound 1 µM) was 59%; the viability, T/C (second compound 10 µM, first compound 3.16 µM) is 21.2%; the viability, T/C (second compound 10 µM, first compound 10 µM) was 3.96%.

In the case of `Nc1ccn(C2OC(CO)C(O)C2(F)F)c(=O)n1` (centres undefined) + NC1CC1c1ccc(-c2cccc(O)c2)cc1, the IC50 was > 300 nM under setting [1]; > 300 nM under setting [2]; > 300 nM under setting [3]; > 300 nM under setting [4]; > 300 nM under setting [5]. The viability, T/C runs as follows: (second compound 0.1 µM, first compound 0.000949 µM) 65.1%; (second compound 0.1 µM, first compound 0.003 µM) 61.8%; (second compound 0.1 µM, first compound 0.00949 µM) 57.8%; (second compound 0.1 µM, first compound 0.03 µM) 61.2%; (second compound 0.1 µM, first compound 0.0949 µM) 65%; (second compound 0.1 µM, first compound 0.3 µM) 64.1%. Further, the viability, T/C is, setting by setting: (second compound 0.316 µM, first compound 0.000949 µM) 70.9%; (second compound 0.316 µM, first compound 0.003 µM) 63.8%; (second compound 0.316 µM, first compound 0.00949 µM) 59.7%; (second compound 0.316 µM, first compound 0.03 µM) 60.9%; (second compound 0.316 µM, first compound 0.0949 µM) 66.6%; (second compound 0.316 µM, first compound 0.3 µM) 64.1%. The viability, T/C by setting is: (second compound 1 µM, first compound 0.000949 µM) 76.6%; (second compound 1 µM, first compound 0.003 µM) 62.6%; (second compound 1 µM, first compound 0.00949 µM) 59.5%; (second compound 1 µM, first compound 0.03 µM) 62.2%; (second compound 1 µM, first compound 0.0949 µM) 62%; (second compound 1 µM, first compound 0.3 µM) 63.8%. The viability, T/C (second compound 3.16 µM, first compound 0.000949 µM) was 74.8%; the viability, T/C (second compound 3.16 µM, first compound 0.003 µM) was 58.3%; the viability, T/C (second compound 3.16 µM, first compound 0.00949 µM) was 57.8%; the viability, T/C (second compound 3.16 µM, first compound 0.03 µM) is 56.6%; the viability, T/C (second compound 3.16 µM, first compound 0.0949 µM) was 60.2%; the viability, T/C (second compound 3.16 µM, first compound 0.3 µM) is 63.2%. For the same molecule, the viability, T/C by setting is: (second compound 10 µM, first compound 0.000949 µM) 65.7%; (second compound 10 µM, first compound 0.003 µM) 61.2%; (second compound 10 µM, first compound 0.00949 µM) 52.4%; (second compound 10 µM, first compound 0.03 µM) 55.6%; (second compound 10 µM, first compound 0.0949 µM) 59.1%; (second compound 10 µM, first compound 0.3 µM) 56%.

Turning to `CC(C)c1c(-c2ccccc2)nc2c(C#N)c[nH]n2c1=O`, the viability, T/C is 95.8% and 97.3% (compound 0.0316 µM); 92.4% and 99.1% (compound 0.1 µM); 87.7% and 97.2% (compound 0.316 µM); 89.9% and 88% (compound 1 µM); 94% and 67.1% (compound 3.16 µM); 95.2% and 19.2% (compound 10 µM). For the same molecule, the IC50 (curve of compound) was > 10000 nM and 4750 nM.

`CCN(c1cc(-c2ccc(CN3CCOCC3)cc2)cc(C(=O)NCc2c(C)cc(C)[nH]c2=O)c1C)C1CCOCC1`: the viability, T/C is, setting by setting: (compound 0.00949 µM) 81.1% and 94.4%; (compound 0.03 µM) 86.6% and 102%; (compound 0.0949 µM) 92.5% and 86.2%; (compound 0.3 µM) 102% and 82.3%; (compound 0.949 µM) 89.9% and 64.9%; (compound 3 µM) 46.9% and 40.9%. For the same molecule, the 50% inhibitory concentration (IC50) (curve of compound) is 2760 nM and 1950 nM.
